From patent US10159685B2, “Vascular calcification” (Cambridge Enterprise Limited, priority 2016, dated 2018)
Where two headings read alike, the source gives them in different places. Marks after values point to notes of the source that are not given here.

What was measured:
Format in all cases: cell-based
[1] = system: human vascular smooth muscle cells (hVSMCs); experiment: o-Cresolphthalein Ca2+ assay, hVSMC Ca/P calcification model (Examples 7-9); conditions: for Extracellular matrix calcification (summary statement): bovine cell and human cell in vitro vascular calcification model; for Inhibition of calcification, normalised results (FIG. 27): concentrations between 0.05 μM and 3 μM
Description: (§1) Primary hVSMCs were cultured in M199 media containing FBS (M199/5% FBS). They were plated at a known cell density, allowed to grow for 24 hours and then treated with control (DMSO only) or calcification media (DMSO containing 2.7 mM Calcium+2.5 mM phosphate)+/−inhibitors. After 6 days, calcification was assessed using the o-Cresolphthalein assay for quantification of Ca^2+ deposition and a BioRad protein assay for protein content.
Medium+/−inhibitors was exchanged every 2-3 days.
as §1, with “8” for “6”, “using” for “using the”
All of the compounds tested were used at a concentration of 3 μM. Medium+/−inhibitors was exchanged every 2-3 days.
as §1, with “phosphate)+/−compounds.” for “phosphate)+/−inhibitors.”, “8” for “6”, “using” for “using the”
These concentrations were chosen to mimic the systemic concentrations of these drugs following patient dosing according to the dose schedule in the prescribing information for each drug. Medium+/−inhibitors was exchanged every 2-3 days.

[2] = system: human monocyte-macrophages (HMMs); experiment: MTT toxicity assay, HMMs, seven days (Example 3); conditions: 7 days; for Cell viability by MTT, percent of control: mean of three experiments; for Toxicity to HMMs (in words): at a concentration of 100 μM
Description: A similar set of toxicity experiments was performed with human monocyte-macrophages (HMMs).

[3] = system: bovine vascular smooth muscle cells (bVSMCs); experiment: o-Cresolphthalein Ca2+ assay, bVSMC GAD calcification model (Examples 4 and 5); conditions: GAD-treated bVSMCs, 10 μM, 7 d
Description: For the bVSMCs a GAD medium (10 mM β-glycerophosphate/0.1 mM L-ascorbic acid-2-phosphate/10 nM dexamethasone) model was used to induce mineralization in bVSMCs. Accordingly, cells were seeded in tissue culture plates using M199/20% FCS culture medium and cultured overnight. The next day, cells were treated either with medium only (M199/5% FBS)+/−inhibitors, or with the GAD-medium (10 mM β-glycerophosphate/0.1 mM L-ascorbic acid-2-phosphate/[…] dexamethasone)+/−inhibitors.
Medium+/−inhibitors was exchanged every 2-3 days. […]
The o-Cresolphthalein assay is a spectrophotometric method for measuring Ca^2+-concentrations in cell/tissue lysates. Following the calcification experiments, cells are briefly washed to remove medium and 100 […]1 of 0.1 N HCl is added to each well to dissolve any mineral deposits. Then, the Ca^2+-concentration of the samples is measured spectrophotometrically (at 570 nm) in the o-cresolphthalein assay with the help of a CaCl2 standard curve in a concentration range of ˜0.02-270 µg Ca^2+/ml.
The commercial BioRad DC protein assay is based on the Lowry method, aka reaction of proteins with a copper-tartrate complex and subsequent reaction with Folin's reagent. Following the calcification experiment, cells are briefly washed to remove medium and 100 µl of solubilisation solution (0.1 M NaOH/1% SDS/DIW) is added to each well to lyse the cells. The protein concentrations of the lysates are subsequently determined in the BioRad DC assay as per supplier's instructions using BSA (bovine serum albumin) as standard.
The in vitro model is the same as the model used in example 4; bovine vascular smooth muscle cells (bVSMCs) cultured so that they produce extracellular matrix, with the addition of the GAD medium (10 mM β-glycerophosphate/0.1 mM L-ascorbic acid-2-phosphate/10 nM dexamethasone).
As above, cells were treated either with medium only (“no-additions”; NA)+/−inhibitors, or with the GAD-medium+/−inhibitors. The inhibitors used were PJ34 and minocyclin (MC) at 10 μM, 1 μM and 0.1 μM.
The methodology was the same as that described in example 4.

[4] = system: bovine vascular smooth muscle cells (bVSMCs); conditions: 7 days; for Cell viability of bVSMCs after seven days (MTT signal, relative to control): mean of three experiments; for Toxicity to bVSMCs (MTT assay, in words): at the concentrations tested (0.5 to 100 μM)
Description: The toxicity of the identified compounds to bovine VSMCs was measured using the MTT assay, which measures the activity of dehydrogenase enzymes of live cells. This assay can pick up both cell death and proliferation.
Bovine VSMCs were seeded in 96 well plates and cultured in M199/20% FCS for 1 day. Then, the cells were incubated with inhibitor concentrations from 0.5 to 100 μM (in M199 medium+5% FBS). The cells were incubated with the inhibitors for 7 days; every 2-3 days the medium −/+inhibitors was exchanged. Then, the MTT assay was performed. The stock vehicle DMSO was tested at corresponding concentrations to the inhibitors at 0.1% DMSO or less.

SMILES | Extracellular matrix calcification (summary statement) [1] | Inhibition of calcification, normalised results (FIG. 27) ([1]; hVSMCs, 8 days) | Cell viability by MTT, percent of control ([2]; 0.5 uM) | Cell viability by MTT, percent of control ([2]; 1 uM) | Cell viability by MTT, percent of control ([2]; 2 uM) | Cell viability by MTT, percent of control ([2]; 5 uM) | Cell viability by MTT, percent of control ([2]; 10 uM) | Cell viability by MTT, percent of control ([2]; 20 uM) | Cell viability by MTT, percent of control ([2]; 50 uM) | Cell viability by MTT, percent of control ([2]; 100 uM) | Toxicity to HMMs (in words) [2] | Cell viability of bVSMCs after seven days (MTT signal, relative to control) ([4]; 0.5 uM) | Cell viability of bVSMCs after seven days (MTT signal, relative to control) ([4]; 1 uM) | Cell viability of bVSMCs after seven days (MTT signal, relative to control) ([4]; 2 uM) | Cell viability of bVSMCs after seven days (MTT signal, relative to control) ([4]; 5 uM) | Cell viability of bVSMCs after seven days (MTT signal, relative to control) ([4]; 10 uM) | Cell viability of bVSMCs after seven days (MTT signal, relative to control) ([4]; 20 uM) | Cell viability of bVSMCs after seven days (MTT signal, relative to control) ([4]; 50 uM) | Cell viability of bVSMCs after seven days (MTT signal, relative to control) ([4]; 100 uM) | Toxicity to bVSMCs (MTT assay, in words) [4] | also measured
NC(=O)c1cccc2cn(-c3ccc([C@@H]4CCCNC4)cc3)nc12 [niraparib] | significantly reduce extracellular matrix calcification | – | – | – | – | – | – | – | – | – | – | – | – | – | – | – | – | – | – | – | Normalised calcium levels (mass of calcium per mass of protein, FIG. 22) ([1]; hVSMCs, 8 days, 3 μM): particularly effective
CCCCc1nc(Cl)c(CO)n1Cc1ccc(-c2ccccc2-c2nn[nH]n2)cc1 [losartan] | – | do not inhibit medial vascular calcification | – | – | – | – | – | – | – | – | – | – | – | – | – | – | – | – | – | – | –
COc1ccc([C@@H]2Sc3ccccc3N(CCN(C)C)C(=O)[C@@H]2OC(C)=O)cc1 [Diltiazem, diltiazem] | – | – | 97.10 | 104.94 | 99.61 | 91.09 | 92.45 | 100.42 | 92.16 | 53.65* | most toxic | 98.78 | 96.07 | 89.48* | 91.88* | 94.54 | 113.60* | 143.28* | 119.64* | non-toxic | Calcium levels (mass of calcium, FIG. 7B) compared to no inhibitors [3]: lower calcium levels; Normalised calcium levels (mass of calcium per mass of protein, FIG. 9B) [3]: slightly lower calcium levels; Stimulatory effect on bVSMCs (MTT assay) ([4]; at 20 μM and above): stimulatory effect
O=C(c1cc(Cc2n[nH]c(=O)c3ccccc23)ccc1F)N1CCN(C(=O)C2CC2)CC1 [olaparib] | significantly reduce extracellular matrix calcification | – | – | – | – | – | – | – | – | – | – | – | – | – | – | – | – | – | – | – | –
O=C1NCCc2c(OCCCCN3CCCCC3)cccc21 [DPQ, 3,4-dihydro-5-[4-(1-piperidinyl)butoxyl]-1(2H)-isoquinolinone] | – | – | 106.61 | 88.68 | 89.59 | 95.11 | 91.82 | 91.99 | 86.74 | 90.94 | relatively innocuous | 100.30 | 101.78 | 92.11* | 94.96 | 92.58* | 94.24* | 89.46* | 89.87* | virtually non-toxic | –
CC(C)c1c(C(=O)Nc2ccccc2)c(-c2ccccc2)c(-c2ccc(F)cc2)n1CC[C@@H](O)C[C@@H](O)CC(=O)O [atorvastatin] | – | do not inhibit medial vascular calcification | – | – | – | – | – | – | – | – | – | – | – | – | – | – | – | – | – | – | –
